{"source": "patent US9708314B2", "about": "“Heterocyclic amide compound” (NISSAN CHEMICAL INDUSTRIES, LTD., priority 2013, dated 2017)", "type_in_all_cases": "in vivo", "key": {"[1]": {"test_system": "directly sowed Oryza sativa", "test": "Test Example 4: effect on crop by application to foliage (diluvial soil, plastic box)", "details": "application to foliage, application herbicide amount 320 g/ha", "how_it_was_run": "(§1)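 Plants were grown in sterilized diluvial soil in a greenhouse at 25-30° C for 14 days, then sprayed on stems and leaves with water-diluted emulsion formulation at set rates in g/ha. Weed control and crop injury were scored 3 weeks after treatment on a 0-5 herbicidal-ratio scale, from 0 (≤5%) to 5 (≥90%).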"}, "[2]": {"test_system": "Beta vulgaris ssp. vulgaris", "test": "Test Example 4: effect on crop by application to foliage (diluvial soil, plastic box)", "how_it_was_run": "as §1"}, "[3]": {"test_system": "Glycine max", "test": "Test Example 4: effect on crop by application to foliage (diluvial soil, plastic box)", "how_it_was_run": "as §1"}, "[4]": {"test_system": "Zea mays", "test": "Test Example 4: effect on crop by application to foliage (diluvial soil, plastic box)", "how_it_was_run": "as §1"}, "[5]": {"test_system": "Brassica campestris L.", "test": "Test Example 4: effect on crop by application to foliage (diluvial soil, plastic box)", "how_it_was_run": "as §1"}, "[6]": {"test_system": "Triticum aestivum", "test": "Test Example 4: effect on crop by application to foliage (diluvial soil, plastic box)", "how_it_was_run": "as §1"}, "[7]": {"test_system": "Setaria viridis", "test": "Test Example 4: herbicidal effect by application to foliage (diluvial soil, plastic box)", "how_it_was_run": "as §1"}, "[8]": {"test_system": "Alopecurus myosuroides", "test": "Test Example 4: herbicidal effect by application to foliage (diluvial soil, plastic box)", "how_it_was_run": "as §1"}, "[9]": {"test_system": "Lolium multiflorum Lam.", "test": "Test Example 4: herbicidal effect by application to foliage (diluvial soil, plastic box)", "how_it_was_run": "as §1"}, "[10]": {"test_system": "Amaranthus retroflexus", "test": "Test Example 4: herbicidal effect by application to foliage (diluvial soil, plastic box)", "how_it_was_run": "as §1"}, "[11]": {"test_system": "Apera spica-venti.", "test": "Test Example 4: herbicidal effect by application to foliage (diluvial soil, plastic box)", "how_it_was_run": "as §1"}, "[12]": {"test_system": "Digitaria ciliaris", "test": "Test Example 4: herbicidal effect by application to foliage (diluvial soil, plastic box)", "how_it_was_run": "as §1"}, "[13]": {"test_system": "Stellaria media", "test": "Test Example 4: herbicidal effect by application to foliage (diluvial soil, plastic box)", "how_it_was_run": "as §1"}, "[14]": {"test_system": "Abutilon theophrasti", "test": "Test Example 4: herbicidal effect by application to foliage (diluvial soil, plastic box)", "how_it_was_run": "as §1"}, "[15]": {"test_system": "Echinochloa crus-galli var. crus-galli", "test": "Test Example 4: herbicidal effect by application to foliage (diluvial soil, plastic box)", "how_it_was_run": "as §1"}, "[16]": {"test_system": "Avena fatua", "test": "Test Example 4: herbicidal effect by application to foliage (diluvial soil, plastic box)", "how_it_was_run": "as §1"}, "[17]": {"test_system": "Chenopodium album", "test": "Test Example 4: herbicidal effect by application to foliage (diluvial soil, plastic box)", "how_it_was_run": "as §1"}, "[18]": {"test_system": "Galium spurium", "test": "Test Example 4: herbicidal effect by application to foliage (diluvial soil, plastic box)", "how_it_was_run": "as §1"}, "[19]": {"test_system": "Veronica persica", "test": "Test Example 4: herbicidal effect by application to foliage (diluvial soil, plastic box)", "how_it_was_run": "as §1"}, "[20]": {"test_system": "Cyperus difformis", "test": "Test Example 3: herbicidal effect by application to foliage (Wagner pot, water depth 0.1-0.5 cm)", "details": "Nineteenth Table, application herbicide amount 320 g/ha", "how_it_was_run": "(§2)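 Greenhouse pot test, 25–30 °C, alluvial soil. Sown seedlings grown 14 days then sprayed on leaves and stems with emulsion diluted to target g/ha. Rating at 3 weeks, 0–5 scale (0 ≤5%, 5 ≥90%).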"}, "[21]": {"test_system": "Leptochloa chinensis", "test": "Test Example 3: herbicidal effect by application to foliage (Wagner pot, water depth 0.1-0.5 cm)", "details": "Nineteenth Table, application herbicide amount 320 g/ha", "how_it_was_run": "as §2"}, "[22]": {"test_system": "Echinochloa crus-galli var. crus-galli", "test": "Test Example 3: herbicidal effect by application to foliage (Wagner pot, water depth 0.1-0.5 cm)", "details": "Nineteenth Table, application herbicide amount 320 g/ha", "how_it_was_run": "as §2"}, "[23]": {"test_system": "directly sowed Oryza sativa", "test": "Test Example 3: effect on crop by application to foliage (Wagner pot, water depth 0.1-0.5 cm)", "details": "Nineteenth Table, application herbicide amount 320 g/ha", "how_it_was_run": "as §2"}, "[24]": {"details": "application to foliage, application herbicide amount 320 g/ha"}, "[25]": {"details": "Application herbicide amount 320 g/ha, foliage application"}}}
{"molecule": "Cc1nnc(NC(=O)c2ccc(C(F)(F)F)n3c(COc4ccccc4)nnc23)o1", "note": "[1-025]", "values": [{"measurement": "d (directly sowed Oryza sativa) effect on crop", "setting": "[1]", "value": "3 (Herbicidal ratio of 40% or more and less than 70%)"}, {"measurement": "f (Beta vulgaris ssp. vulgaris) effect on crop", "setting": "[2]; [24]", "value": "5 (Herbicidal ratio of 90% or more (almost completely withered))"}, {"measurement": "c (Glycine max) effect on crop", "setting": "[3]; [24]", "value": "0 (Herbicidal ratio of 5% or less (almost no effect))"}, {"measurement": "b (Zea mays) effect on crop", "setting": "[4]; [24]", "value": "0 (Herbicidal ratio of 5% or less (almost no effect))"}, {"measurement": "g (Brassica campestris L.) effect on crop", "setting": "[5]; [24]", "value": "2 (Herbicidal ratio of 20% or more and less than 40%)"}, {"measurement": "e (Triticum aestivum) effect on crop", "setting": "[6]; [24]", "value": "0 (Herbicidal ratio of 5% or less (almost no effect))"}, {"measurement": "G (Setaria viridis) herbicidal effect", "setting": "[7]; [24]", "value": "2 (Herbicidal ratio of 20% or more and less than 40%)"}, {"measurement": "J (Alopecurus myosuroides) herbicidal effect", "setting": "[8]; [24]", "value": "0 (Herbicidal ratio of 5% or less (almost no effect))"}, {"measurement": "K (Lolium multiflorum Lam.) herbicidal effect", "setting": "[9]; [24]", "value": "0 (Herbicidal ratio of 5% or less (almost no effect))"}, {"measurement": "N (Amaranthus retroflexus) herbicidal effect", "setting": "[10]; [24]", "value": "3 (Herbicidal ratio of 40% or more and less than 70%)"}, {"measurement": "L (Apera spica-venti.) herbicidal effect", "setting": "[11]; [24]", "value": "0 (Herbicidal ratio of 5% or less (almost no effect))"}, {"measurement": "F (Digitaria ciliaris) herbicidal effect", "setting": "[12]; [24]", "value": "3 (Herbicidal ratio of 40% or more and less than 70%)"}, {"measurement": "P (Stellaria media) herbicidal effect", "setting": "[13]; [24]", "value": "4 (Herbicidal ratio of 70% or more and less than 90%)"}, {"measurement": "M (Abutilon theophrasti) herbicidal effect", "setting": "[14]; [24]", "value": "5 (Herbicidal ratio of 90% or more (almost completely withered))"}, {"measurement": "H (Echinochloa crus-galli var. crus-galli) herbicidal effect", "setting": "[15]; [24]", "value": "4 (Herbicidal ratio of 70% or more and less than 90%)"}, {"measurement": "I (Avena fatua) herbicidal effect", "setting": "[16]; [24]", "value": "0 (Herbicidal ratio of 5% or less (almost no effect))"}, {"measurement": "O (Chenopodium album) herbicidal effect", "setting": "[17]; [24]", "value": "5 (Herbicidal ratio of 90% or more (almost completely withered))"}, {"measurement": "Q (Galium spurium) herbicidal effect", "setting": "[18]; [24]", "value": "3 (Herbicidal ratio of 40% or more and less than 70%)"}, {"measurement": "R (Veronica persica) herbicidal effect", "setting": "[19]; [24]", "value": "3 (Herbicidal ratio of 40% or more and less than 70%)"}, {"measurement": "E (Cyperus difformis) herbicidal ratio grade", "setting": "[20]", "value": "2 (Herbicidal ratio of 20% or more and less than 40%)"}, {"measurement": "D (Leptochloa chinensis) herbicidal ratio grade", "setting": "[21]", "value": "3 (Herbicidal ratio of 40% or more and less than 70%)"}, {"measurement": "H (Echinochloa crus-galli var. crus-galli) herbicidal ratio grade", "setting": "[22]", "value": "4 (Herbicidal ratio of 70% or more and less than 90%)"}, {"measurement": "b (directly sowed Oryza sativa) effect on crop grade", "setting": "[23]", "value": "2 (Herbicidal ratio of 20% or more and less than 40%)"}]}
{"molecule": "CSCc1nnc(NC(=O)c2ccc(C(F)(F)F)n3c(C(C)C)nnc23)o1", "note": "[1-141]", "values": [{"measurement": "f (Beta vulgaris ssp. vulgaris) effect on crop grade", "setting": "[2]; [25]", "value": "4 (Herbicidal ratio of 70% or more and less than 90%)"}, {"measurement": "d (Glycine max) effect on crop grade", "setting": "[3]; [25]", "value": "1 (Herbicidal ratio of 5% or more and less than 20%)"}, {"measurement": "c (Zea mays) effect on crop grade", "setting": "[4]; [25]", "value": "0 (Herbicidal ratio of 5% or less (almost no effect))"}, {"measurement": "g (Brassica campestris L.) effect on crop grade", "setting": "[5]; [25]", "value": "4 (Herbicidal ratio of 70% or more and less than 90%)"}, {"measurement": "e (Triticum aestivum) effect on crop grade", "setting": "[6]; [25]", "value": "0 (Herbicidal ratio of 5% or less (almost no effect))"}, {"measurement": "G (Setaria viridis) herbicidal effect grade", "setting": "[7]; [25]", "value": "1 (Herbicidal ratio of 5% or more and less than 20%)"}, {"measurement": "J (Alopecurus myosuroides) herbicidal effect grade", "setting": "[8]; [25]", "value": "0 (Herbicidal ratio of 5% or less (almost no effect))"}, {"measurement": "K (Lolium multiflorum Lam.) herbicidal effect grade", "setting": "[9]; [25]", "value": "0 (Herbicidal ratio of 5% or less (almost no effect))"}, {"measurement": "N (Amaranthus retroflexus) herbicidal effect grade", "setting": "[10]; [25]", "value": "3 (Herbicidal ratio of 40% or more and less than 70%)"}, {"measurement": "L (Apera spica-venti.) herbicidal effect grade", "setting": "[11]; [25]", "value": "0 (Herbicidal ratio of 5% or less (almost no effect))"}, {"measurement": "F (Digitaria ciliaris) herbicidal effect grade", "setting": "[12]; [25]", "value": "3 (Herbicidal ratio of 40% or more and less than 70%)"}, {"measurement": "P (Stellaria media) herbicidal effect grade", "setting": "[13]; [25]", "value": "3 (Herbicidal ratio of 40% or more and less than 70%)"}, {"measurement": "M (Abutilon theophrasti) herbicidal effect grade", "setting": "[14]; [25]", "value": "3 (Herbicidal ratio of 40% or more and less than 70%)"}, {"measurement": "H (Echinochloa crus-galli var. crus-galli) herbicidal effect grade", "setting": "[15]; [25]", "value": "4 (Herbicidal ratio of 70% or more and less than 90%)"}, {"measurement": "I (Avena fatua) herbicidal effect grade", "setting": "[16]; [25]", "value": "0 (Herbicidal ratio of 5% or less (almost no effect))"}, {"measurement": "O (Chenopodium album) herbicidal effect grade", "setting": "[17]; [25]", "value": "4 (Herbicidal ratio of 70% or more and less than 90%)"}, {"measurement": "Q (Galium spurium) herbicidal effect grade", "setting": "[18]; [25]", "value": "1 (Herbicidal ratio of 5% or more and less than 20%)"}, {"measurement": "R (Veronica persica) herbicidal effect grade", "setting": "[19]; [25]", "value": "3 (Herbicidal ratio of 40% or more and less than 70%)"}, {"measurement": "E (herbicidal effect grade)", "setting": "[20]; application to foliage", "value": "3 (Herbicidal ratio of 40% or more and less than 70%)"}, {"measurement": "D (herbicidal effect grade)", "setting": "[21]; application to foliage", "value": "2 (Herbicidal ratio of 20% or more and less than 40%)"}, {"measurement": "H (herbicidal effect grade)", "setting": "[22]; application to foliage", "value": "4 (Herbicidal ratio of 70% or more and less than 90%)"}, {"measurement": "b (effect on crop grade)", "setting": "[23]; application to foliage", "value": "1 (Herbicidal ratio of 5% or more and less than 20%)"}]}
